{
  "source": "paper PMC9870890",
  "about": "(Nature Communications, 2023)",
  "key": {"M2R and GoA": {"target": "T1, M2R and GoA (Homo sapiens, UniProt P08172)", "T1 construct": "FLAG (N); 8xHis (C); made in house; host or cells: Sf9 insect cells (receptor)", "T1 sequence (P59768 2-68, one chain of several)": "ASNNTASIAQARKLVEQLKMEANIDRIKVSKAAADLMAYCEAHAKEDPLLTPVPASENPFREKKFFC", "T1 sequence (P09471 2-354, one chain of several, further chain)": "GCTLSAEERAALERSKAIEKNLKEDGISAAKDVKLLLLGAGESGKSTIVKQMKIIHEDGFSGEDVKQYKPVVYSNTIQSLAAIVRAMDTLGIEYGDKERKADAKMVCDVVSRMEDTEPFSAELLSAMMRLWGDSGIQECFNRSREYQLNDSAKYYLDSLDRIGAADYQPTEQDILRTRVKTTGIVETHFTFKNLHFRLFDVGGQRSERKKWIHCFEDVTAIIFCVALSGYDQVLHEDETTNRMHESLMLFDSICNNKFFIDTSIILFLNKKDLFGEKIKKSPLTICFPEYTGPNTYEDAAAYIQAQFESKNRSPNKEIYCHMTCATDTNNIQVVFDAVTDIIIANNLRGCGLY", "T1 sequence (P62873 whole entry, one chain of several, further chain)": "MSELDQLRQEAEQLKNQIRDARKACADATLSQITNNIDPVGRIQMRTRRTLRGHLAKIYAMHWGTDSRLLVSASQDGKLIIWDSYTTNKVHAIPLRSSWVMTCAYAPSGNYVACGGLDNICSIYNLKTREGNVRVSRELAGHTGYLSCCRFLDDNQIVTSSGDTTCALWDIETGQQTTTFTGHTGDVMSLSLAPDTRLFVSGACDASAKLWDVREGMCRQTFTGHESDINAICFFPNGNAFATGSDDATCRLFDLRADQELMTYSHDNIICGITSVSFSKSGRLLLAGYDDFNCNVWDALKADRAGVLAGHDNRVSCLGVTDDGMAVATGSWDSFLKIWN", "assay": "GTPase-Glo assay (GTP turnover) with purified M2R and GoA", "assay_type": "biochemical", "details": "for Residual GTP (%): 90 min, normalized to GoA alone", "procedure": "The receptors for GTPase-Glo^TM assay were expressed and purified as described above and frozen at −80 °C before use. […] The GTPase reaction was incubated at room temperature (22–25 °C) for different times (15–90 min). […] After incubation, 5 μL reconstituted 1xGTPase-Glo^TM Reagent (Promega) was added to the completed GTPase reaction, mixed briefly and incubated with shaking for 30 min at room temperature (22–25 °C) to convert the remaining GTP into ATP. Then 10 μL Detection Reagent (Promega) was added to the system and incubated for 5-10 min at room temperature (22–25 °C) to convert the ATP into luminescent signals. Luminescence intensity was quantified using a Multimode Plate Reader (PerkinElmer) luminescence counter."}, "human, wild-type M2R": {"target": "T2, human, wild-type M2R (Homo sapiens, UniProt P08172)", "T2 construct": "expressed in transfected cells; host or cells: HEK293A", "T2 sequence (P08172 1-466)": "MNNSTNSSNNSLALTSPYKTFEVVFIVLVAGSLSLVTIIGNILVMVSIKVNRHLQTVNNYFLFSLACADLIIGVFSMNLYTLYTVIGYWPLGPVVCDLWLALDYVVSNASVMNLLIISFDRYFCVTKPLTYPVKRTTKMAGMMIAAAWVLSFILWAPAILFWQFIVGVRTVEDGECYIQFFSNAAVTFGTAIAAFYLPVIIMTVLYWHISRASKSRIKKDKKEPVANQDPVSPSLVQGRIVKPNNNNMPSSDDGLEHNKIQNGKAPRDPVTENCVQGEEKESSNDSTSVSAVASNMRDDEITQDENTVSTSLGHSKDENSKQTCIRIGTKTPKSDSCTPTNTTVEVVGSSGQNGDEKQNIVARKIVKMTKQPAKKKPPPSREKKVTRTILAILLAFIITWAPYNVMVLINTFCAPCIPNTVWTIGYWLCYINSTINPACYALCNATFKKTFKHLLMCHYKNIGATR", "assay": "NanoBiT-G-protein (GoA) dissociation assay, wild-type M2R, HEK293A cells", "assay_type": "cell-based", "details": "for NanoBiT-GoA dissociation signal, Mean (Veh = 1.000): n = 4", "description": "Plasmid transfection for HEK293A cells (Thermo Fisher Scientific) was performed by combining 25 µl (volume is per 10-cm culture dish) of polyethylenimine solution (1 mg/mL) and a mixture of plasmids each encoding the large fragment (LgBiT)-containing the GαoA subunit (500 ng), the small fragment (SmBiT)-fused Gγ2 subunit with the C68S mutation (2.5 µg) and the untagged Gβ1 subunit (2.5 µg), along with a human, wild-type M2R (1 µg; containing N-terminal HA-derived signal sequence followed by the FLAG-epitope tag). After an incubation for one day, the transfected cells were harvested, pelleted with centrifugation, and suspended in 9 ml of Hank’s balanced saline solution (HBSS) containing 0.01% bovine serum albumin (BSA fatty acid–free grade, SERVA) and 5 mM HEPES (pH 7.4) (assay buffer). The cell suspension was dispensed in a white 96-well plate at a volume of 70 µl per well and mixed with 20 µl of 50 µM coelenterazine (Carbosynth) diluted in the assay buffer. After 2 h incubation at room temperature, the plate was measured for baseline luminescence (SpectraMax L, Molecular Devices) and 10 µl of titrated concentrations of LY2119620 diluted in the assay buffer were added. […] Kinetics data points from 5 min to 10 min were averaged and normalized to the initial count and used as a G-protein dissociation index. […] The G-protein dissociation signals were fitted to a four-parameter sigmoidal concentration-response curve (GraphPad Prism8). For each experiment, we calculated Emax by normalizing Span to the LY2119620-free condition and ∆pEC50 by subtracting pEC50 of the LY2119620-free condition performed in parallel and used the values to denote allosteric modulator activity."}, "Mock": {"system": "Mock", "assay": "NanoBiT-GoA dissociation assay, Mock-transfected cells (control)", "assay_type": "cell-based"}, "M2R": {"target": "T3, M2R (Homo sapiens, UniProt P08172)", "T3 sequence (P08172 1-466)": "T2 sequence (P08172 1-466)", "assay": "biochemical", "assay_type": "binding", "design": "expressed in transfected cells", "details": "for IC50: IC50 ([3H]-NMS competition)", "procedure": "Purified M2R receptor was reconstituted into high-density lipoprotein (HDL) particles constituting apolipoprotein A1(APOA1) and mixture of POPG: POPC lipids with 3:2 (mol:mol)ratio as previously described. […] Membranes or HDL particles were separated from excess [^3H]-NMS by Whatman GF/B filters using a Brandel 48-well harvester. The bound radioligand were read on a liquid scintillation counter (MicroBeta Jet, PerkinElmer). Data were analyzed by GraphPad Prism 9.2.0."}, "M2R L129^34.51A mutant": {"target": "T4, M2R L129^34.51A mutant (Homo sapiens, UniProt P08172, L129A)", "T4 sequence (P08172 1-466 L129A)": "T2 sequence (P08172 1-466) with L129A", "assay": "NanoBiT-GoA dissociation assay, L129A mutant M2R", "description": "Plasmid transfection for HEK293A cells (Thermo Fisher Scientific) was performed by combining 25 µl (volume is per 10-cm culture dish) of polyethylenimine solution (1 mg/mL) and a mixture of plasmids each encoding the large fragment (LgBiT)-containing the GαoA subunit (500 ng), the small fragment (SmBiT)-fused Gγ2 subunit with the C68S mutation (2.5 µg) and the untagged Gβ1 subunit (2.5 µg), along with a human, wild-type M2R (1 µg; containing N-terminal HA-derived signal sequence followed by the FLAG-epitope tag). After an incubation for one day, the transfected cells were harvested, pelleted with centrifugation, and suspended in 9 ml of Hank’s balanced saline solution (HBSS) containing 0.01% bovine serum albumin (BSA fatty acid–free grade, SERVA) and 5 mM HEPES (pH 7.4) (assay buffer). The cell suspension was dispensed in a white 96-well plate at a volume of 70 µl per well and mixed with 20 µl of 50 µM coelenterazine (Carbosynth) diluted in the assay buffer. […] Kinetics data points from 5 min to 10 min were averaged and normalized to the initial count and used as a G-protein dissociation index. For the mutant study, the cell culture and the transfection mixture were scaled down to a 6-cm dish (4 ml culture media) and the transfected cells were suspended in 4 ml of the assay buffer and seeded in the 96-well plate at a volume of 80 µL. The G-protein dissociation signals were fitted to a four-parameter sigmoidal concentration-response curve (GraphPad Prism8). For each experiment, we calculated Emax by normalizing Span to the LY2119620-free condition and ∆pEC50 by subtracting pEC50 of the LY2119620-free condition performed in parallel and used the values to denote allosteric modulator activity. Similarly, for the mutant study, we calculated ∆pEC50 by subtracting pEC50 of the WT (1:1) condition performed in parallel."}},
  "note": "Residue numbers refer to the chain shown, from its start. Values joined by “and” are separate entries in the source; they are usually repeats but may differ in a detail not shown here. Equal values may be shown once.",
  "data": [
    {"smiles": "C[N+](C)(C)CC#CCOC1=NOCC1", "note": "[Ixo, iperoxo]", "values": [
      {"measurement": "Residual GTP (%)", "setting": "M2R and GoA; +DMSO", "value": "7.331% and 3.598% and 1.619%"},
      {"measurement": "Residual GTP (%)", "setting": "M2R and GoA; +LY2119620 (100 μM)", "value": "34.958% and 41.3656% and 22.0231%"},
      {"measurement": "GTP-turnover, Fig. 1c (GTPase-Glo luminescence)", "setting": "M2R and GoA; time 15 min, 100 μM ACh or 10 μM Ixo, M2R-GoA", "value": "432481 and 362971 and 431239 and 324973"},
      {"measurement": "∆pEC50", "setting": "human, wild-type M2R; WT (1:1), reference", "value": 0.000},
      {"measurement": "NanoBiT-GoA dissociation signal, Mean (Veh = 1.000)", "setting": "human, wild-type M2R; WT (1:1), IXO Log [M] -6", "value": 0.334},
      {"measurement": "NanoBiT-GoA dissociation signal, Mean (Veh = 1.000)", "setting": "human, wild-type M2R; WT (1:1), IXO Log [M] -7", "value": 0.343},
      {"measurement": "NanoBiT-GoA dissociation signal, Mean (Veh = 1.000)", "setting": "human, wild-type M2R; WT (1:1), IXO Log [M] -8", "value": 0.377},
      {"measurement": "NanoBiT-GoA dissociation signal, Mean (Veh = 1.000)", "setting": "human, wild-type M2R; WT (1:1), IXO Log [M] -9", "value": 0.510},
      {"measurement": "NanoBiT-GoA dissociation signal, Mean (Veh = 1.000)", "setting": "human, wild-type M2R; WT (1:1), IXO Log [M] -10", "value": 0.788},
      {"measurement": "NanoBiT-GoA dissociation signal, Mean (Veh = 1.000)", "setting": "human, wild-type M2R; WT (1:1), IXO Log [M] -11", "value": 0.961},
      {"measurement": "NanoBiT-GoA dissociation signal, Mean (Veh = 1.000)", "setting": "human, wild-type M2R; WT (1:1), IXO Log [M] -12", "value": 1.000},
      {"measurement": "∆pEC50", "setting": "human, wild-type M2R; WT (1:2)", "value": "-0.203 and -0.153 and -0.342 and -0.212"},
      {"measurement": "NanoBiT-GoA dissociation signal, Mean (Veh = 1.000)", "setting": "human, wild-type M2R; WT (1:2), IXO Log [M] -6", "value": 0.338},
      {"measurement": "NanoBiT-GoA dissociation signal, Mean (Veh = 1.000)", "setting": "human, wild-type M2R; WT (1:2), IXO Log [M] -7", "value": 0.345},
      {"measurement": "NanoBiT-GoA dissociation signal, Mean (Veh = 1.000)", "setting": "human, wild-type M2R; WT (1:2), IXO Log [M] -8", "value": 0.397},
      {"measurement": "NanoBiT-GoA dissociation signal, Mean (Veh = 1.000)", "setting": "human, wild-type M2R; WT (1:2), IXO Log [M] -9", "value": 0.567},
      {"measurement": "NanoBiT-GoA dissociation signal, Mean (Veh = 1.000)", "setting": "human, wild-type M2R; WT (1:2), IXO Log [M] -10", "value": 0.844},
      {"measurement": "NanoBiT-GoA dissociation signal, Mean (Veh = 1.000)", "setting": "human, wild-type M2R; WT (1:2), IXO Log [M] -11", "value": 0.975},
      {"measurement": "NanoBiT-GoA dissociation signal, Mean (Veh = 1.000)", "setting": "human, wild-type M2R; WT (1:2), IXO Log [M] -12", "value": 1.005},
      {"measurement": "NanoBiT-GoA dissociation signal, Mean (Veh = 1.000)", "setting": "Mock; IXO Log [M] -6, n = 3", "value": 0.990},
      {"measurement": "NanoBiT-GoA dissociation signal, Mean (Veh = 1.000)", "setting": "Mock; IXO Log [M] -7, n = 3", "value": 0.997},
      {"measurement": "NanoBiT-GoA dissociation signal, Mean (Veh = 1.000)", "setting": "Mock; IXO Log [M] -8, n = 3", "value": 0.995},
      {"measurement": "NanoBiT-GoA dissociation signal, Mean (Veh = 1.000)", "setting": "Mock; IXO Log [M] -9, n = 3", "value": 1.002},
      {"measurement": "NanoBiT-GoA dissociation signal, Mean (Veh = 1.000)", "setting": "Mock; IXO Log [M] -10, n = 3", "value": 1.001},
      {"measurement": "NanoBiT-GoA dissociation signal, Mean (Veh = 1.000)", "setting": "Mock; IXO Log [M] -11, n = 3", "value": 1.005},
      {"measurement": "NanoBiT-GoA dissociation signal, Mean (Veh = 1.000)", "setting": "Mock; IXO Log [M] -12, n = 3", "value": 1.002},
      {"measurement": "IC50", "setting": "M2R; M2R in HDL particles, +GoA", "value": 1.8, "unit": "nM"},
      {"measurement": "IC50", "setting": "M2R; M2R in HDL particles, absence of GoA", "value": 47.7, "unit": "nM"},
      {"measurement": "increase of affinity on addition of GoA", "setting": "M2R; M2R in HDL particles", "value": "~ 27 fold"},
      {"measurement": "competition curve data, Fig. 1b ([3H]-NMS binding)", "setting": "M2R; log[M] -6, without GoA", "value": "5.629 and 5.897 and 4.938"},
      {"measurement": "competition curve data, Fig. 1b ([3H]-NMS binding)", "setting": "M2R; log[M] -7, +GoA", "value": "1.735 and 2.591"},
      {"measurement": "competition curve data, Fig. 1b ([3H]-NMS binding)", "setting": "M2R; log[M] -7, without GoA", "value": "32.2784 and 32.9838 and 32.0245"},
      {"measurement": "competition curve data, Fig. 1b ([3H]-NMS binding)", "setting": "M2R; log[M] -8, +GoA", "value": "6.41 and 4.7831 and 8.225"},
      {"measurement": "competition curve data, Fig. 1b ([3H]-NMS binding)", "setting": "M2R; log[M] -8, without GoA", "value": "80.5549 and 71.1592 and 70.0024"},
      {"measurement": "competition curve data, Fig. 1b ([3H]-NMS binding)", "setting": "M2R; log[M] -9, +GoA", "value": "64.4578 and 59.7146 and 77.1975"},
      {"measurement": "competition curve data, Fig. 1b ([3H]-NMS binding)", "setting": "M2R; log[M] -9, without GoA", "value": "92.3489 and 93.3083 and 87.8063"},
      {"measurement": "competition curve data, Fig. 1b ([3H]-NMS binding)", "setting": "M2R; log[M] -10, +GoA", "value": "85.6735 and 79.355 and 99.5434"},
      {"measurement": "competition curve data, Fig. 1b ([3H]-NMS binding)", "setting": "M2R; log[M] -10, without GoA", "value": "97.3148 and 101.914 and 100.771"},
      {"measurement": "competition curve data, Fig. 1b ([3H]-NMS binding)", "setting": "M2R; log[M] -11, +GoA", "value": "89.0468 and 92.1461 and 118.807"},
      {"measurement": "competition curve data, Fig. 1b ([3H]-NMS binding)", "setting": "M2R; log[M] -11, without GoA", "value": "86.0992 and 80.6395 and 89.0477"},
      {"measurement": "competition curve data, Fig. 1b ([3H]-NMS binding)", "setting": "M2R; log[M] -12, +GoA", "value": "107.797 and 98.7044 and 86.8037"},
      {"measurement": "competition curve data, Fig. 1b ([3H]-NMS binding)", "setting": "M2R; log[M] -12, without GoA", "value": "98.7115 and 87.2702 and 99.5439"},
      {"measurement": "∆pEC50", "setting": "M2R L129^34.51A mutant", "value": "-0.434 and -0.475 and -0.315"},
      {"measurement": "NanoBiT-GoA dissociation signal, Mean (Veh = 1.000)", "setting": "M2R L129^34.51A mutant; IXO Log [M] -6, n = 3", "value": 0.336},
      {"measurement": "NanoBiT-GoA dissociation signal, Mean (Veh = 1.000)", "setting": "M2R L129^34.51A mutant; IXO Log [M] -7, n = 3", "value": 0.355},
      {"measurement": "NanoBiT-GoA dissociation signal, Mean (Veh = 1.000)", "setting": "M2R L129^34.51A mutant; IXO Log [M] -8, n = 3", "value": 0.423},
      {"measurement": "NanoBiT-GoA dissociation signal, Mean (Veh = 1.000)", "setting": "M2R L129^34.51A mutant; IXO Log [M] -9, n = 3", "value": 0.635},
      {"measurement": "NanoBiT-GoA dissociation signal, Mean (Veh = 1.000)", "setting": "M2R L129^34.51A mutant; IXO Log [M] -10, n = 3", "value": 0.887},
      {"measurement": "NanoBiT-GoA dissociation signal, Mean (Veh = 1.000)", "setting": "M2R L129^34.51A mutant; IXO Log [M] -11, n = 3", "value": 0.985},
      {"measurement": "NanoBiT-GoA dissociation signal, Mean (Veh = 1.000)", "setting": "M2R L129^34.51A mutant; IXO Log [M] -12, n = 3", "value": 1.001}
    ]}
  ]
}
